In paper PMC10313921, “A living ex vivo platform for functional, personalized brain cancer diagnosis” (Cell Reports Medicine, 2023):

Key:
Type in all cases: cell-based, human
[1] = system: MS21 (low-passage patient-derived GBM line); assay: Drug screening of MS21 tumor foci on OBSCs; conditions: MS21 on OBSCs
Description: (§1) Tumor cells (0.17 μL, 25,000 cells) were seeded onto OBSCs 2h after slicing, with one tumor seeded in the center of each hemisphere for a total of two tumor foci per OBSC. BSM was changed 24h after slicing. Fluorescence images were taken 0 h, 24 h, and 96 h post-seeding for normalization of tumor size. Bioluminescence readouts were also taken at 0 h, 24 h, and 96 h post seeding for assessment of cell viability. Luciferin was added underneath the culture insert and allowed to incubate for 10 min before bioluminescence measurement on an AMI optical imaging system.
(§2) Tumor cells were seeded onto OBSCs 2h after slicing as described above. One day after tumor seeding, six concentrations of each drug were diluted in the media underneath each culture insert, or XRad was applied using an X-Rad 320 Precision X-ray machine (n = 4 tumor foci per concentration; n ≥ 24 tumor foci per drug per cell line). Three days after treatment, the bioluminescence of live tumor cells was measured using an AMI optical imager (Spectral Instruments) and dose-response curves were generated. Tumor survival was normalized to day one tumor fluorescence and compared to an untreated control group.
(§3) Several weighted parameters were factored into an overall drug sensitivity score.
(§4) For DSS parameters 1–6, therapeutic windows were calculated by comparing OBSC toxicity and tumor response at the doses where tumor kill passed through the DSS parameter (Table S1 and S3). For DSS parameter 7, the therapeutic window was calculated by comparing the slopes through the tumor EC50 and the OBSC tox EC50. For DSS parameter 8, the therapeutic window was calculated by comparing the areas under tumor kill and OBSC tox curves. Normalized therapeutic window ratios for DSS parameters 1–8 within each drug-tumor-OBSC interaction were calculated in the following manner: within each window, values ranged from +1 to −1, where values approaching +1 signify increasing tumor kill relative to normal tissue toxicity, and values approaching −1 indicate agents where tumors remained highly viable while toxicity to the normal OBSC tissue was elevated. DSS parameters 9–11 were determined based on the behavior of the tumor in response to the drug, as defined above.
(§5) All individually weighed parameters were added together to generate the DSS. Overall DSS from 0 to 100 signify increasing efficacy in tumor kill relative to OBSC toxicity, while scores from 0 to −100 describe scenarios in which tumors thrive more effectively than OBSCs for a given treatment. Dose-response values were calculated via linear interpolation of raw data, not from best-fit curve equations.

[2] = system: PIS patient tumor tissue (intracranial sarcoma); assay: Drug screening of uncultured patient tumor tissue PIS on OBSCs; conditions: PIS patient tissue; scale -100 to +100
Description: as §2
To engraft onto OBSCs, the cryopreserved/thawed or fresh brain tumor tissue was filtered through a 100 μm cell strainer. Each 50 mg of tissue was transfected with 1mL mcherry-FLuc Lentivirus at 1.5e7 vg/ml with 1μL polybrene for 4h at 37°C. After incubation, the brain tumor tissue was washed with PBS three times to remove the residual virus and reconstituted in PBS with a final volume of 150 μL. Then the tissue solution was engrafted atop OBSCs at ∼0.5 mg tissue in 3 μL of PBS on each hemisphere of the slice. The OBSC engrafted with patient tumor tissue was incubated at 37°C with 5% CO2 and 95% humidity. The BSM was changed after 24h and subsequently every 3 days. Tumor treatment studies were executed as described above for tumor lines. The viability of the patient tissue was measured by an AMI optical imaging system with the addition of 1.5 mg/mL luciferin underneath the culture insert.
as §3, §4, §5

[3] = system: U373WT (wild-type established GBM line); assay: Drug screening of U373WT tumor foci on OBSCs; conditions: U373 WT on OBSCs
Description: as §1, §2, §3, §4, §5

[4] = system: LN229 (established GBM line); assay: Drug screening of LN229 tumor foci on OBSCs
Description: as §1, §2, §3, §4, §5

[5] = system: U373KO (RAD18 knockout of U373WT via CRISPR); assay: Drug screening of U373KO tumor foci on OBSCs; conditions: U373 KO on OBSCs
Description: as §1, §2, §3, §4, §5

[6] = system: GBM8 (high-passage patient-derived GBM line); assay: Drug screening of GBM8 tumor foci on OBSCs; conditions: GBM8 on OBSCs
Description: as §1, §2, §3, §4, §5

[7] = system: PDIPG (low-passage pediatric patient-derived line); assay: Drug screening of PDIPG tumor foci on OBSCs; conditions: PDIPG on OBSCs
Description: as §1, §2, §3, §4, §5

[8] = system: MB231Br (breast cancer metastasis to brain); assay: Drug screening of MB231Br tumor foci on OBSCs; conditions: MB231BR on OBSCs
[9] = area under the dose-response curve, trapezoidal rule
[10] = dose required to kill 10% of the tumor
[11] = dose required to kill 25% of the tumor
[12] = dose required to kill 50% of the tumor, read-out: EC50
[13] = dose required to kill 75% of the tumor
[14] = dose required to kill 90% of the tumor, read-out: EC90
[15] = dose required to kill 50% of the tumor
[16] = dose required to kill 90% of the tumor

`N.N.O=C([O-])C1(C(=O)[O-])CCC1.[Pt+2]` [Carboplatin] was tested, and the “Killing at highest dose” value [1] was 1.00E+00 fraction of tumor population killed, the AUC [1, 9] was 1.47E+02 and the EC10 [1, 10] was 59.7 µM. It also gave an EC25 [1, 11] of 71.8 µM, an EC50 [1, 12] of 91.9 µM and an EC75 [1, 13] of 157 µM. For the same molecule, the EC90 [1, 14] was 215 µM, the Slope ([1]; slope through the EC50) was -1.24E-02 and the “DSS (drug sensitivity score)” value [2] was 88. The “Killing at highest dose” value [3] was 1.00E+00 fraction of tumor population killed, the AUC [3, 9] was 3.11E+02 and the EC10 [3, 10] was 93.2 µM. For the same molecule, the EC25 [3, 11] was 103 µM, the EC50 [3, 15] was 176 µM and the EC75 [3, 13] was 250 µM. For the same molecule, the EC90 [3, 16] was 700 µM, the Slope ([3]; slope through the EC50) was -3.40E-03 and the “Killing at highest dose” value [4] was 1.00E+00 fraction of tumor population killed. It also gave an AUC [4, 9] of 1.22E+02, an EC10 [4, 10] of 4.17 µM and an EC25 [4, 11] of 14 µM. For the same molecule, the EC50 [4, 15] was 133 µM, the EC75 [4, 13] was 193 µM and the EC90 [4, 16] was 229 µM. For the same molecule, the Slope ([4]; slope through the EC50) was -4.20E-03, the “Killing at highest dose” value [5] was 9.99E-01 fraction of tumor population killed and the AUC [5, 9] was 1.92E+02. For the same molecule, the EC10 [5, 10] was 9.09 µM, the EC25 [5, 11] was 125 µM and the EC50 [5, 15] was 172 µM. It also gave an EC75 [5, 13] of 219 µM, an EC90 [5, 16] of 248 µM and a Slope ([5]; slope through the EC50) of -5.29E-03. For the same molecule, the “Killing at highest dose” value [6] was 1.00E+00 fraction of tumor population killed, the AUC [6, 9] was 1.03E+01 and the EC10 [6, 10] was 1.16 µM. For the same molecule, the EC25 [6, 11] was 2.91 µM, the EC50 [6, 12] was 5.81 µM and the EC75 [6, 13] was 8.72 µM. The EC90 [6, 14] was 26 µM, the Slope ([6]; slope through the EC50) was -8.60E-02 and the “Killing at highest dose” value [7] was 1.00E+00 fraction of tumor population killed. The AUC [7, 9] was 1.79E+02, the EC10 [7, 10] was 4.76 µM and the EC25 [7, 11] was 20 µM. The EC50 [7, 12] was 86.1 µM, the EC75 [7, 13] was 211 µM and the EC90 [7, 14] was 583 µM. For the same molecule, the Slope ([7]; slope through the EC50) was -3.59E-03, the “Killing at highest dose” value [8] was 1.00E+00 fraction of tumor population killed and the AUC [8, 9] was 1.89E+02. The EC10 [8, 10] was 117 µM, the EC25 [8, 11] was 119 µM and the EC50 [8, 15] was 122 µM. It also gave an EC75 [8, 13] of 125 µM, an EC90 [8, 16] of 213 µM and a Slope ([8]; slope through the EC50) of -8.00E-02.
